Data as given in article PMC2855385 (Biochimica et biophysica acta, 2009).
Read-outs that look alike come from different tables or passages of the source.

What was measured:
[1] = target: T1, E. coli peptide deformylase (PDFEc) (Escherichia coli, UniProt P0A6K3); format: biochemical; conditions: for Initial rate: AMT 500 µM; for remaining activity at 500 µM: read-out: % of control, AMT 500 µM
[2] = target: T1, E. coli peptide deformylase (PDFEc); assay: Slow-binding inhibition of PDFEc, kobs as a function of inhibitor concentration; format: biochemical
[3] = solvent dimethylformamide, 1 week post
[4] = solvent ethanol, more than 2 days incubation

T1 sequence (P0A6K3 whole entry): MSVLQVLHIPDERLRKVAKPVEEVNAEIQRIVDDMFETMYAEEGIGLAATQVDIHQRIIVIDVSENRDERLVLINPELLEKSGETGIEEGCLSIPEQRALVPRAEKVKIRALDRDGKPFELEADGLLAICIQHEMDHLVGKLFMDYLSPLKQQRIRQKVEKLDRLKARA

Question: Which results are given for `Nc1nnc(S)s1` [AMT, 2-amino-5-mercapto-1,3,4-thiadiazole]?
Answer: initial rate of the enzyme catalyzed reaction versus control ([1]; 500 µM AMT incubated in DMF for 30 min): barely lower than that of the control; Initial rate ([1]; solvent acetonitrile, more than 2 days incubation): 16.3 mOD min^−1; Initial rate [1, 3]: 7.9 mOD min^−1; Initial rate ([1]; solvent dimethylformamide, tested immediately): 17.0 mOD min^−1; Initial rate ([1]; solvent dimethylsulfoxide, more than 2 days incubation): 15.9 mOD min^−1; Initial rate [1, 4]: 16.9 mOD min^−1; inhibitory effect on PDFEc ([1]; AMT freshly prepared in DMF, or dissolved in any other solvent and aged at 25 °C for any length of time): No inhibitory effect; inhibition of PDFEc ([1]; AMT incubated with 0.06% H2O2 in buffer): no inhibition; remaining activity at 500 µM [1, 3]: 47%; remaining activity at 500 µM [1, 4]: 100%; enhancement of apparent binding affinity by the slow-binding step (Ki / Ki^*) [2]: about 30 fold
